The text below walks through data of patent publication US10870662B2, “Alpha-amino pateamine A derivatives and methods for treating chronic lymphocytic leukemia” (The Texas A&M University System, priority 2015, dated 2020).

Like-named read-outs stand apart in the source and are kept apart here.

One may read the IC50 as the point on the concentration scale where inhibition reaches its midpoint.

Data set [1] is described as follows: Plasma protein binding (PPB) assay. In kind it is in vitro ADME. As to conditions: preliminary data. Here is the method: In this example, a representative plasma protein binding (PPB) assay used to provide the plasma protein binding data is described.
The assay includes the following steps.
1. Frozen plasma was thawed and centrifuged at 1120 g for 10 min to remove any particulates. The plasma was decanted, the pH was measured and, if required, was adjusted to pH7.4 with lactic acid.
2. All compounds were prepared at 10 mM concentration in DMSO. The solutions were carefully vortexed to ensure the compounds dissolved. The 10 mM DMSO solutions were diluted to 500 μM MeOH solutions (5+95 μl).
3. In a 2 mL 96-well plate (DWP), 1000 μL of plasma was pipetted into each well in Columns 1-4.
4. 10 μL of the 500 μM compound solution was pipetted to 1000 μL of corresponding plasma. (The final DMSO=0.05%). The solution was capped and carefully vortexed for 5 min.
5. 200 μL of PBS buffer was added to each receiver well of the dialysis plate (buffer was added to the Receiver first).
6. The bottom of dialysis plate was capped and turned over to the orange donor side (top) of dialysis plate.
7. The orange donor side of the dialysis plate was uncapped and 200 μL of the […] drug/plasma samples were transferred from the 2 ml 96-DWP to the corresponding donor wells in the dialysis plate. […]
23. The samples in the Receiver Plate, Donor Plate, and Recovery Plate were analyzed by LC/MS/MS […]

Data set [2] concerns chronic lymphocytic leukemia (CLL) cells. As to the kind of experiment: CLL cell killing assay (annexin V / propidium iodide flow cytometry, 24 h). The data set is classed as cell-based, human. As to conditions: CLL cell, primary CLL cells. The protocol: Biological Activity of 2-Amino Pateamine Derivatives Peripheral blood from the CLL patients were collected in heparin vacutainer tubes and centrifuged at 1500 rpm for 15 min to separate the plasma. The plasma (upper layer) was removed and saved for cell culture. The lower layer was diluted with phosphate-buffered saline (PBS), and the mononuclear cells were isolated by Ficoll density-gradient centrifugation. The isolated CLL cells were cultured at 1×10^7 cells/mL in RPMI 1640 medium containing 10% of fetal bovine serum, 10% autologous plasma, or 50% autologous plasma. Cell death in CLL lymphocytes was evaluated by flow cytometry analysis using annexin V and propidium iodide (PI) double staining. After incubation with increasing concentrations of PatA analogs for 24 hours, CLL cells (1×10^6 cells) were stained in 100 μL binding buffer with 5 μL annexin-Cy5, and incubated for 15 minutes in dark at room temperature. After staining, 300 μL binding buffer with 5 μL of 50 μg/mL propidium iodide were added to each tube. Samples were analyzed immediately by flow cytometer. Cells stained positive for either annexin V or PI were considered dead cells. The IC50 values of CLL killing were determined by non-linear fitting of the survival curve by the GraphPad Prism software.

In data set [3] the test system is models of human leukemia and melanoma. The conditions noted are these: mice; cited from earlier work.

`CC(/C=C/C(C)=C/[C@@H]1Cc2nc(cs2)CCCCC(=O)O[C@@H](C)C/C(C)=C/C=C\C(=O)O1)=C\CN(C)C` [DMDA Pat A, Des-methyl, des-amino pateamine A, reference compound]: the “plasma protein binding in human plasma” value in data set [1] is reported as “highly protein bound”. Further, the IC50 in data set [2] (RPMI 1640 with 10% autologous (human) plasma, read-out: IC50 CLL Assay, 10% plasma) was 5.37 µM; in data set [2] (RPMI 1640 with 50% autologous (human) plasma, read-out: IC50 CLL Assay, 50% plasma) it was over 10 µM; in data set [2] (Homo sapiens, RPMI 1640 with 10% fetal bovine serum, read-out: IC50 CLL Assay, 10% FBS), 0.71 µM. For the same compound, the “activity in xenograft models” value in data set [3] is “significant tumor reduction”.
